According to patent US4225579A, “Means and method for improving defenses against caries” (priority 1979, dated 1980):
Residues, ends and D or L forms follow the SMILES beside them.

Key:
Assay type in all cases: cell-based
[1] = tested on: salivary sediment; assay: pH fall and rise with individual peptides of 2-4 amino acid units in salivary sediment-glucose mixture; settings: for pH rising to / pH drop to: salivary sediment 16.7% (v/v), glucose 2.8 mM, peptide 3.3 mM; for pH rising to: measured through the fourth hour; for pH drop to: pH starts slightly above 7
Procedure: Four sets of three 10×75 mm test tubes were provided with 0.2 ml of 8.4 mM (millimolar) of aqueous glucose solution. Set I was provided with 0.2 ml of pooled supernatant saliva. […] Set IV was provided with 0.2 ml of distilled water. […] The concentration of the peptide in the combined composition was 3.3 mM. […] The pH values are as follows: Extensive testing of individual peptides of 2-4 amino acid units as could reasonably be obtained or synthesized was done. The tests were carried out under the same conditions as Sets I-IV. The salivary sediment was present in an amount of 16.7% (v/v), glucose 2.8 mM and the peptide 3.3 mM in the final composition. Duplicate runs without peptide were run parallel to the others as a double check. […] An effective pH rise factor begins to reverse the fall within the first hour. Measurement continues through the fourth hour.

[2] = tested on: oral bacteria; assay: pH of glucose solution incubated with oral bacteria suspension, Sets I-IV; settings: 37° C.; for pH at 0 minutes: 0 time when bacteria added, test substance 3.3 mM in combined composition
Procedure: Experiments were performed in vitro using supernatant saliva. The saliva was obtained from random donors whose salivary secretions were paraffin block stimulated. The saliva donations were pooled before and after sediment removal.
Four sets of three 10×75 mm test tubes were provided with 0.2 ml of 8.4 mM (millimolar) of aqueous glucose solution. Set I was provided with 0.2 ml of pooled supernatant saliva. Set II was provided with 0.2 ml of 9.9 mM of the peptide glycine-glycine-arginine. Set III was provided with 0.2 ml of 9.9 mM arginine. Set IV was provided with 0.2 ml of distilled water. Sequentially 0.2 ml of a 50:50 aqueous suspension of oral bacteria was added to each test tube. The concentration of the peptide in the combined composition was 3.3 mM. The prepared test tubes were kept at 37° C. in a water bath. pH readings were taken at 0 time when the bacteria was added and at 15, 30, 45, 60, 90, 120, 180 and 240 minutes.

[3] = tested on: oral bacteria; assay: as above; settings: 37° C., 3.3 mM

Compound	pH rising to [1]	pH drop to [1]	pH at 0 minutes [2]	pH at 15 minutes ([2]; 3.3 mM)	pH at 39 minutes ([2]; 39 minutes, 3.3 mM)	pH at 45 minutes ([2]; 3.3 mM)	pH at 60 minutes ([2]; 3.3 mM)	pH at 90 minutes ([2]; 3.3 mM)	pH at 120 minutes ([2]; 3.3 mM)	pH at 180 minutes ([2]; 3.3 mM)	pH at 240 minutes ([2]; 3.3 mM)	effectiveness as pH rise factor [1]	pH at 39 minutes [3]
N=C(N)NCCC[C@H](N)C(=O)O.NCC(=O)O.NCC(=O)O [Gly-Gly-Arg, glycine-glycine-arginine]	7.5	5.5	7.4	6.8	6.6	6.4	6.6	6.6	6.7	7.2	7.6		
N=C(N)NCCC[C@H](NC(=O)[C@H](CCCCN)NC(=O)CNC(=O)CN)C(=O)O [Gly-Gly-Lys-Arg, H-glycine-glycine-lysine-arginine-OH] (H-GGKR-OH)	8.4	6.4										proven effective	
N=C(N)NCCC[C@H](N)C(=O)O [Set III, arginine, reference compound]			7.3	5.8		5.2	4.9	5.0	5.0	5.3	5.8		5.4
